Consider one substance from US20250345391A1, “COMPOSITIONS AND METHODS FOR THE TREATMENT OF SEPSIS” (Children's Hospital Medical Center, priority 2022, published 2025).

Test [1] concerns TNFα, IL-1β, IL-6, IL-10, KC, MIP-1α. In words: Plasma levels of cytokines after CLP sepsis (multiplex array). The class given is in vivo, Male C57BL/6 mice. Particulars: 6 h after CLP, vs vehicle. An excerpt: (§1) The investigation conformed to the National Institutes of Health Guide for the Care and Use of Laboratory Animals (Eighth Edition, 2011) and was approved by the Institutional Animal Care and Use Committee of the Cincinnati Children's Hospital Medical Center. Male C57BL/6 mice were obtained from Charles River Laboratories International, Inc. (Wilmington, MA). Mice were used at 3-5 months of age to mimic the equivalent for human ranges from 20-25 years (29). Male mice only were chosen for the experimentation to avoid interference from female hormonal fluctuations in sepsis responses during the estrous cycle. Mice were housed in pathogen-free conditions under a 10-h light/14-h dark cycle with free access to food and water. Mice were anesthetized with 2.0% isoflurane in 50% oxygen and polymicrobial sepsis was induced by cecal ligation and puncture (CLP) (30). After a midline laparotomy, the cecum was exteriorized, ligated and punctured twice with a 23-G needle. The cecum was then returned into the peritoneal cavity and the abdominal incision was closed. After the procedure, mice were randomly assigned to three treatment groups: a vehicle-treated group received distilled water (200 μl/mouse) intraperitoneally (i.p.); a 100 μg colivelin-treated group received the colivelin at 100 μg/kg i.p., and a 200 μg colivelin-treated group received the colivelin at 200 μg/kg i.p. at 1 h after CLP. The intraperitoneal injection was chosen to allow for a rapid uptake and bioavailability of the peptide. All groups of mice also received fluid resuscitation (35 ml/kg normal saline solution subcutaneously) immediately after, at 3 h and 12 h after the CLP procedure. To minimize pain at the surgical incision site, lidocaine hydrochloride (1%, 4 mg/kg total dose) was applied locally immediately after the procedure. […] Mice were then sacrificed at 0, 6 and 18 h after CLP. Blood, lungs, kidneys, liver, and thoracic aortas were collected for biochemical assays. Plasma levels of tumor necrosis factor-α (TNFα), interleukin (IL)-1β, IL-6, IL-10, keratinocytes-derived chemokine (KC), and macrophage inflammatory proteins (MIP-1α) were used as indices of the systemic inflammatory response and were evaluated by a commercially available multiplex array system (Milliplex, Millipore Corporation, Billerica, MA). Plasma levels of endoglin, intercellular adhesion molecule-1 (ICAM-1), P-selectin, proprotein convertase subtilisin/kexin type 9 (PCSK9), and angiopoietin-2 (Ang 2) were used as indices of endothelial injury and were evaluated by a commercially available multiplex array system (R&D Systems, Minneapolis, MN). Plasma levels of syndecan-1 were used as indices of glycocalyx damage and were evaluated by a mouse syndecan-1 sandwich-type enzyme-linked immunosorbent assay (ELISA) kit (Boster Biological Technology Co., California, US). Assays were performed using the protocols recommended by the manufacturer.

The subject of a further test is STAT3. Briefly: Western blot of STAT3 and phosphorylated forms in lung after CLP. The class given is in vivo, Male C57BL/6 mice. The following applies: 6 h after CLP; colivelin 100 μg/kg i.p. at 1 h after CLP; vs vehicle.
Text: as §1, with “assays.” for “assays. Plasma levels of tumor necrosis factor-α (TNFα), interleukin (IL)-1β, IL-6, IL-10, keratinocytes-derived chemokine (KC), and macrophage inflammatory proteins (MIP-1α) were used as indices of the systemic inflammatory response and were evaluated by a commercially available multiplex array system (Milliplex, Millipore Corporation, Billerica, MA). Plasma levels of endoglin, intercellular adhesion molecule-1 (ICAM-1), P-selectin, proprotein convertase subtilisin/kexin type 9 (PCSK9), and angiopoietin-2 (Ang 2) were used as indices of endothelial injury and were evaluated by a commercially available multiplex array system (R&D Systems, Minneapolis, MN). Plasma levels of syndecan-1 were used as indices of glycocalyx damage and were evaluated by a mouse syndecan-1 sandwich-type enzyme-linked immunosorbent assay (ELISA) kit (Boster Biological Technology Co., California, US). Assays were performed using the protocols recommended by the manufacturer.”
Subcellular fractionation was performed using a centrifugation model. […] The Bradford protein assay was then used for quantitative determination of total proteins.
Cytosol content of total AMPKα1/α2 and its phosphorylated form pAMPKα1/α2 (Santa Cruz Biotechnology, Dallas, TX, USA), cytosol and nuclear content of STAT3 and its phosphorylated forms pSTAT3(Tyr705) and pSTAT3(Ser727) (Cell Signaling Technology, Danvers, MA, USA) were determined by immunoblot analyses; β-actin was concomitantly probed with mouse anti-β-actin (Santa Cruz Biotechnology) as a loading control for both cytosol and nuclear proteins. […] The immunoreaction was detected by near-infrared fluorescence. […]

Setting [2] is: colivelin 100 or 200 μg/kg i.p. at 1 h after CLP, dose-independent.
Where [3] appears, read: colivelin 100 or 200 μg/kg i.p., trend towards reduction.

As to Colivelin (SALLRSIPAPAGASRLLLLTGEIDLP), in test [1] (setting [2]), the “Plasma levels of IL-10” value was “significantly decreased”, the “Plasma levels of MIP-1α” value is recorded as “significantly decreased” and the “Plasma levels of TNF-α” value is “significantly decreased”. Also, in test [1] (setting [3]), the “Plasma levels of IL-1β” value is “not statistically different” and the “Plasma levels of IL-6” value was “not statistically different”. Also, the “Plasma levels of KC” value in test [1] (colivelin at 200 μg/kg i.p. at 1 h after CLP) is “significantly reduced”. Also, in the test with STAT3, the “Cytosolic expression of pSTAT3(Ser727), lung” value is “significantly reduced”; the “Cytosolic expression of pSTAT3(Tyr705), lung” value is on record as “significantly reduced”; the “Nuclear expression of pSTAT3(Ser727), lung” value is recorded as “lower than vehicle-treated mice, but not statistically significant”; the “Nuclear expression of pSTAT3(Tyr705), lung” value is on record as “lower than vehicle-treated mice, but not statistically significant”.
